Reference: patent publication US6060462A, “Electrophilic peptide analogs as inhibitors of trypsin-like enzymes” (DuPont Pharmaceuticals Company, priority 1997, dated 2000)
Structures can show the parent of a compound that is named as a salt. Where two headings read alike, the source gives them in different places.

How the values were obtained:
thrombin = settings: literature value; cited from earlier work
human thrombin [1] = biological target: T1, human thrombin (Homo sapiens, UniProt P00734); settings: literature value; cited from earlier work
human factor VIIa = biological target: T2, human factor VIIa (Homo sapiens, UniProt P08709); test: Inhibition of Factor VIIa hydrolysis of chromogenic substrate S2288 (Ki); assay type: biochemical; settings: purified human factor VIIa, 0.05 M tris buffer, pH 7.6, read-out: Ki values for inhibition of Serine Proteases: Factor VIIa
T2 construct: 50 nM human factor VIIa (BiosPacific, Emeryville, Calif.); purchased BiosPacific, Emeryville, Calif
T2 sequence (P08709 213-466 limits assumed): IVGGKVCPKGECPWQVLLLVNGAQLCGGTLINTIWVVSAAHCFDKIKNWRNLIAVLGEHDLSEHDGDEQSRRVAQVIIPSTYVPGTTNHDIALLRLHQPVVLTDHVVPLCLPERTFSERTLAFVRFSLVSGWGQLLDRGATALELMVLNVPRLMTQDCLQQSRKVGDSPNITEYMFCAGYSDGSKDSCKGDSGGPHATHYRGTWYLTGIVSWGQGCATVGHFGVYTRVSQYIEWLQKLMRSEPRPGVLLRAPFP
T2 sequence (P08709 61-212 partner limits assumed): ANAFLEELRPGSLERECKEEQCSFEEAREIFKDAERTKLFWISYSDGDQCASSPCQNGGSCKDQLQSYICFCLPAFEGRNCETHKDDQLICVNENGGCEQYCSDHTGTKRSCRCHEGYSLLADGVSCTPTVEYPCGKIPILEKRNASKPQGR
Summary of the method: (§1)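 Purified human proteases hydrolysed chromogenic substrates (thrombin S2238, Xa S2222, VIIa S2288), followed at 405 nm. Thrombin/Xa buffer: 0.10 M sodium phosphate pH 7.5, 0.20 M NaCl, 0.5% PEG 8000; VIIa: 0.05 M Tris pH 7.6, 0.10 M NaCl, 4 mM CaCl2, 0.1% BSA. Ki from velocities at 25–30 min.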

human thrombin [2] = biological target: T1, human thrombin; test: Inhibition of thrombin hydrolysis of chromogenic substrate S2238 (Ki); assay type: biochemical; set-up: 0.2-0.5 nM human thrombin or human factor Xa; purchased Enzyme Research Laboratories, South Bend, Ind; settings: purified human thrombin, 0.10 M sodium phosphate buffer, pH 7.5, read-out: Ki values for inhibition of Serine Proteases: Trombin
Summary of the method: as §1

human factor Xa = biological target: T3, human factor Xa (Homo sapiens, UniProt P00742); test: Inhibition of Factor Xa hydrolysis of chromogenic substrate S2222 (Ki); assay type: biochemical; settings: purified human factor Xa, 0.10 M sodium phosphate buffer, pH 7.5, read-out: Ki values for inhibition of Serine Proteases: Factor Xa
T3 construct: 0.2-0.5 nM human thrombin or human factor Xa; purchased Enzyme Research Laboratories, South Bend, Ind
Summary of the method: as §1

Thrombin time = Thrombin time (IC50), Table 80

T3 sequence (P00742 235-488 limits assumed): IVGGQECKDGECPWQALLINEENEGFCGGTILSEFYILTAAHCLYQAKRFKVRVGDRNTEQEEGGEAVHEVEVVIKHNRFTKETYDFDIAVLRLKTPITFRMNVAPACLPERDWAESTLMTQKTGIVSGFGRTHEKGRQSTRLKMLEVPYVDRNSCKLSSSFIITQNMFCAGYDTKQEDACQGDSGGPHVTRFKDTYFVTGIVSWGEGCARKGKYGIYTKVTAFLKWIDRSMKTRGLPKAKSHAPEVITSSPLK
T3 sequence (P00742 41-179 partner limits assumed): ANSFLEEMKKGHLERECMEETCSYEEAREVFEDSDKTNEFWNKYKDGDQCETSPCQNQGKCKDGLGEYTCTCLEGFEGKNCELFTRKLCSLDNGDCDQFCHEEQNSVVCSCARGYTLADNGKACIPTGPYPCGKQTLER

Molecule | Ki (thrombin) [nM] | Ki (human thrombin [1]) [nM] | Ki (human factor VIIa) [µM] | Ki (human thrombin [2]) [nM] | Ki (human factor Xa) [nM] | IC50 (Thrombin time) [µM]
N#CC(CCCNC(=N)N)NC(=O)[C@@H]1CCCN1C(=O)[C@H](N)Cc1ccccc1 (stereo partly drawn) [D-phenylalanyl-prolyl-NHCH((CH2)3 NHC(=NH)NH2)--CN] | 700 | – | – | – | – | –
N=C(N)NCCC[C@@H](C=O)NC(=O)[C@@H]1CCCN1C(=O)[C@H](N)Cc1ccccc1 [D-phenylalanyl-prolyl-arginal] | – | 75 | – | – | – | –
CC1(C)C2CC3OB(C(CCCCN)NC(=O)CN(C(=O)CCc4ccccc4)C4CC4)OC3(C)C1C2 (stereo not drawn) [Example 54.4.2, Hydrocinnamoyl-[N-(Cyclopropyl)-Gly]-boroLys-C10H16 HCl] | – | – | < 0.5 | < 500 | < 50000 | < 0.5
CC1(C)C2CC3OB(C(CCCCN)NC(=O)CN(C(=O)CCc4ccccc4)C4CCCCC4)OC3(C)C1C2 (stereo not drawn) [Example 54.4.3, Hydrocinnamoyl-[N-(Cyclohexyl)-Gly]-boroLys-C10H16 HCl] | – | – | < 0.5 | < 500 | < 50000 | < 50
CN(CC(=O)NC(CCCCN)B1OC2CC3CC(C3(C)C)C2(C)O1)C(=O)c1ccccc1Sc1ccccc1C#N (stereo not drawn) [Example 62.4.3, (2-(2-Cyano)-Thiophenyl)-Benzoyl-Sar-boroLys-C10H16 HCl] | – | – | < 50 | < 500 | < 500 | < 50
NCCCCC(NC(=O)CN(CCc1ccccc1)C(=O)CCCC(=O)O)B(O)O (stereo not drawn) [Example 66.1.1, Glutaryl-[N-(Phenethyl)-Gly]-boroLys--OH HCl] | – | – | < 50 | < 500 | < 500 | < 50
COC(=O)CCC(=O)N(CCc1ccccc1)CC(=O)NC(CCCCN)B(O)O (stereo not drawn) [Example 68.3.3, Methyl Succinyl-[N-(Phenethyl)-Gly]-boroLys--OH HCl] | – | – | < 50 | < 500 | < 50000 | < 50
COC(=O)CCCC(=O)N(CCc1ccccc1)CC(=O)NC(CCCCN)B(O)O (stereo not drawn) [Example 68.4.1, Methyl Glutaryl-[N-(Phenethyl)-Gly]-boroLys--OH HCl] | – | – | < 50 | < 500 | < 500 | < 50
CC1(C)C2CC3OB(C(CCCCN)NC(=O)CN(CCc4ccccc4)C(=O)CCCC(=O)O)OC3(C)C1C2 (stereo not drawn) [Example 69.1.1, Glutaryl-[N-(Phenethyl)-Gly]-boroLys-C10H16] | – | – | < 50 | < 500 | < 500 | < 50
CC1(C)C2CC3OB(C(CCCCN)NC(=O)CN(CCc4ccccc4)C(=O)CNS(C)(=O)=O)OC3(C)C1C2 (stereo not drawn) [Example 69.3.2, Methanesulfonyl-Gly-[N-(Phenethyl)-Gly]-boroLys-C10H16 HCl] | – | – | < 0.5 | < 500 | < 500 | < 0.5
Hydrocinnamoyl-Sar-Lys[CH(OH)(OCH3)--C(=O)--OCH3] HCl [Example 61.4.1] | – | – | < 50 | < 500 | < 50000 | < 50
Methanesulfonyl-Gly-[N-(N-(Methyl)-Benzyl)-Gly]-boroLys--OH HCl [Example 66.3.2] | – | – | < 0.5 | < 500 | < 500 | < 0.5
